Experiments:
MAO-B = target: T1, MAO-B (Homo sapiens, UniProt P27338); experiment: Enzyme inhibition assay (in vitro peroxidase assay) against MAO-B
T1 sequence (P27338 1-520): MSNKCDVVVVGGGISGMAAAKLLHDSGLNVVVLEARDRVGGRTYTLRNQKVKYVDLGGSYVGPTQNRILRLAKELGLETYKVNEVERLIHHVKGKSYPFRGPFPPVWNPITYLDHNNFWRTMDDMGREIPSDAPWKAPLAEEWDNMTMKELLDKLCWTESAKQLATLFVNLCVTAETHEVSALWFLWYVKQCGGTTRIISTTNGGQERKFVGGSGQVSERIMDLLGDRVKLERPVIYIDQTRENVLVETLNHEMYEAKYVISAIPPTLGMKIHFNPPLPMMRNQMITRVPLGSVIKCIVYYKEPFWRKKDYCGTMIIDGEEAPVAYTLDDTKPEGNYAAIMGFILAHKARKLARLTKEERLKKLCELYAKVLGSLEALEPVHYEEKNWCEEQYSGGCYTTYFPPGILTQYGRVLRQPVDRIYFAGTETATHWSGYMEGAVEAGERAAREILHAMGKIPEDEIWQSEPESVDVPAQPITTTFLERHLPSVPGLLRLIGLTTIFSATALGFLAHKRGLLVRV
Description: Enzyme inhibition assays against LSD1, LSD2, MAO-A, and MAO-B were performed as previously described [25]. Technical replicates, n = 3.

GSC and LN229 cells = experiment: PARP cleavage (apoptosis) by western blot; type: cell-based; settings: GSC1228, GSC222, GSC316, LN229; 5 μM
From the text: Super-enhancers consist of enhancer clusters with abundant binding of transcription factors and are highly enriched with H3K27ac marks. The H3K4me2 increased regions included the MYC locus and H3K4me2 de novo regions comprised Nestin and SOX2 loci (Fig. 2F, Supplementary Fig. S5A). These regions were also identified as super-enhancers in GSCs using data from our previous study (Fig. 2F). Compared to the large increase in H3K4me2 in these regions, changes in H3K4me3 were subtle after S2172 treatment (only 2582 regions were acquired modification) (Fig. 2C). Increasing the me2/me3 ratio at H3K4 is associated with reduced gene expression.
A mRNA expression of stem cell marker genes following 96 h treatment of GSC1228 with S2172 (5 μM). The y-axis indicates the expression change relative to DMSO-treated cells. Error bar indicates the SD. *P < 0.05. B Left panel, western blot analysis of MYC, Nestin, and SOX2 after treatment of GSC1228 with either DMSO or S2172 (5 μM) for 96 h. β-actin (ACTB) was used as the loading control. Right panel, Quantification of band signal intensities from the western blot. […] The ratio was calculated by dividing the cleaved-PARP band intensity by the full length-PARP band intensity. […]
[…] Quantification of signal intensity of western blot (right panel). […] Ratio was calculated by dividing cleaved band intensity by total protein band intensity. […]

- Ki (MAO-B): > 250 µM
- Inhibition of MAO-B (in words) (MAO-B; in vitro peroxidase assay): not inhibited
Compound: NC1CCC(NC2CC2c2cc(F)cc(F)c2OCc2ccccc2)CC1 (stereo not drawn) [S2172]
- apoptosis, increased cleaved PARP (GSC and LN229 cells): induced apoptosis
